Tests used:
[1] = Edema resulting from yeast in the paw of the rat; assay type: in vivo; settings: oral, ASA 200, AST 300 mg/Kg
Description: (A) Edema resulting from yeast in the paw of the rat. The AST product was administered orally both in the acid and sodium salt form. It was compared with a molar equivalent dose of acetylsalicylic acid and with carboxymethylcellulose placebo. The edema of the paw was induced with a local injection of the yeast simultaneously with the oral treatment with the drugs, and the volume of the paw was measured in hundredths of milliliter.

[2] = Analgesic activity: convulsions produced by phenylquinone; assay type: in vivo, mouse; settings: oral, ASA 200, AST 300 mg/Kg
Description: (A) Test of convulsions produced by phenylquinone injected into mice by the intraperitoneal route. The AST product was administered orally both in the acid form (AST Ac). and as the sodium salt (AST Na). It was compared with a molar equivalent dosage of acetylsalicylic acid and with a carboxymethylcellulose placebo. The convulsions were induced at varying intervals from the oral treatment counting from the first 20 minutes after the injection of phenylquinone.

[3] = Edema as a result of nystatin in the rat's paw; assay type: in vivo; settings: p.o.
Description: (B) Edema as a result of nystatin in the rat's paw. The long duration of this type of edema enabled the animals to be repeatedly treated in order to ascertain the presence if any of the protracted effect of the AST product also using parenteral administration. The comparison was carried out using a molar equivalent dose of acetylsalicylic acid administrated orally and with the carboxymethylcellulose placebo also only administered orally. The AST product was used in the acid form orally and in the salt form using intraperitoneal administration.
The dosages of the drugs, always proportional to one another, were varied from day to day, i.e.: the first day a dosage of 200 mg/Kg of ASA and 300 mg/Kg of AST; the second day a double dose of each; the third day a double dose of each divided into two equal components administered with a spacing of 9 hours (10 am and 7 pm respectively); the fourth day no treatment in order to check the length of the effect after the fourth administration.
The […] was injected into the paw on the night before the first treatment with the drugs and the volume of the paw was measured in hundredths of milliliter.

[4] = Pharmaco-toxicological tests on laboratory animals (summary); assay type: in vivo
[5] = Analgesic activity: mechanical pressure test on inflamed rat's paw; assay type: in vivo; settings: oral, ASA 200, AST 300 mg/Kg
Description: (B) Mechanical pressure test on inflamed rat's paw. The AST product was administered both in the acid and sodium salt form by the oral method. It was compared with a molar equivalent dosage of acetylsalicylic acid and with a carboxymethylcellulose placebo. The inflammation of the paw was induced by a local injection of yeast simultaneously with the oral treatment with the drugs and the tenderness was measured in grams of mechanical pressure required to cause a reaction in the animal.

[6] = assay type: in vivo, rat; settings: rat, in vivo, po, 335 mg/kg
Description: Rats which had not been fed for 24 hours were used. The AST product was administered orally as the acid or the sodium salt at a dosage of 335 mg/Kg suspended in 1% carboxymethylcellulose. […] Both the methods of treatment and the observation time were identical for the 3 groups of animals.

Acute toxicity, mouse = settings: in vivo
Description: (§1) Tests were carried out both on mice and rats by means of oral, subcutaneous, intraperitoneal and intravenous administration.
(§2) In the case of oral administration, the product was used in the acid form suspended in an aqueous solution of carboxymethylcellulose, whilst in the case of parenteral administration it was made soluble by salt formation with sodium hydroxide in a physiological solution with a neutral final pH.
(§3) The results are given in the following table, together with the results found in the literature for acetylsalicylic acid (ASA).
(§4) Wherever possible, the values of the LD50 were calculated using the probit method; if no mortality took place even at very high dosages, the maximum dosage tested has been given.

[7] = Antipyretic activity: pyrexia from subcutaneous yeast in the rat; assay type: in vivo; settings: p.o., ASA 200, AST 300 mg/Kg
Description: Pyrexia from subcutaneous yeast in the rat. The AST product was administered orally in the acid from and the salt form with sodium, and by the intraperitoneal method in the salt form. It was compared with a molar equivalent dose of acetylsalicylic acid administered orally and with a carboxymethylcellulose placebo. The pyrexia was induced with a subcutaneous injection of yeast on the evening prior to the drug treatment, i.e. 16 hours before.

Acute toxicity, rat = settings: in vivo, intravenous, sodium salt solution
Description: as §1, §2, §3, §4

[8] = Vasodilator activity (vasodilation of the ocular conjunctiva in guinea pigs); assay type: in vivo, guinea pig
[9] = Antilipemic action, Morris or Handler diet, Compound A; assay type: in vivo, Wistar rat; settings: for Bile BSF excretion, percentage change vs controls / Serum beta-lipoproteins, percentage change vs controls / Serum total cholesterol, percentage change vs controls / Serum total lipids, percentage change vs controls: 50 days, 200 mg/kg orally
Description: Wistar rats were treated for 50 days with a Morris diet or a Handler diet. Simultaneously with the diet they received 200 mg/kg of Compound A or of choline orally every day. The controls only received the diet. The following were examined at the end of the treatment: (a) total cholesterol, total lipids and beta-lipoproteins in the serum, (b) BSF excretion in the bile.

[10] = Toxicology, oral treatment of mice for 180 days, Compound A; assay type: in vivo, mouse; settings: 200 mg/kg orally
[11] = Choleretic activity in cannulated rats; assay type: in vivo, rat
Description: Rats were fitted with a cannula, the bile volume was measured after the first hour, they were then treated with a test compound and the bile volume was measure after the second hour, so as to determine the percentage change. The various compounds were administered intravenously at a dose of 100 mg/kg.

[12] = Protection against hepatic intoxication by CCl4 and cold, Compound A (BSF in blood); assay type: in vivo; settings: 500 mg/kg simultaneously with CCl4; 5 h at 4° C.
Description: Oral administration of 5 ml/kg of a 20% solution of CCl4 in oil was followed by exposure for 5 hours to a temperature of 4° C. 500 Mg/kg of the Compound A of the invention were administered simultaneously with the CCl4. The BSF was tested in the blood. An average of 20 animals were used per group, and relative to the controls there was a reduction of 16%.

[13] = 100 mg/kg i.v., given after first hour

## CC(=O)Oc1ccccc1C(=O)OCCN(CCOC(=O)c1ccccc1OC(C)=O)CCS(=O)(=O)O [AST, N,N-di(acetylsalicyloyloxy ethyl)taurine]
[1]; 1h
  Inhibition of the edema with respect to treatment with placebo: 42
[1]; 3h
  Inhibition of the edema with respect to treatment with placebo: 38
[1]; 5h
  Inhibition of the edema with respect to treatment with placebo: 48
[2]; 1h
  Inhibition % of convulsions in respect of treatment with placebo: 10%
[2]; 2h
  Inhibition % of convulsions in respect of treatment with placebo: 11%
[2]; 4h
  Inhibition % of convulsions in respect of treatment with placebo: 0%
[3]; 1st day, 2h after 1st dose, ASA 200, AST Ac 300 mg/Kg
  % Inhibition of the edema in respect of treatment with placebo: 0%
[3]; 1st day, 4h after 1st dose, ASA 200, AST Ac 300 mg/Kg
  % Inhibition of the edema in respect of treatment with placebo: 3%
[3]; 1st day, 8h after 1st dose, ASA 200, AST Ac 300 mg/Kg
  % Inhibition of the edema in respect of treatment with placebo: 3%
[3]; 2nd day, 2h after 2nd dose, ASA 400, AST Ac 600 mg/Kg
  % Inhibition of the edema in respect of treatment with placebo: 3%
[3]; 2nd day, 4h after 2nd dose, ASA 400, AST Ac 600 mg/Kg
  % Inhibition of the edema in respect of treatment with placebo: 2%
[3]; 2nd day, 8h after 2nd dose, ASA 400, AST Ac 600 mg/Kg
  % Inhibition of the edema in respect of treatment with placebo: 10%
[3]; 3rd day, 2h after 3rd dose, ASA 200, AST Ac 300 mg/Kg
  % Inhibition of the edema in respect of treatment with placebo: 8%
[3]; 3rd day, 4h after 3rd dose, ASA 200, AST Ac 300 mg/Kg
  % Inhibition of the edema in respect of treatment with placebo: 7%
[3]; 3rd day, 8h after 3rd dose, ASA 200, AST Ac 300 mg/Kg
  % Inhibition of the edema in respect of treatment with placebo: 6%
[3]; 4th day, 13h after 4th dose, ASA 200, AST Ac 300 mg/Kg
  % Inhibition of the edema in respect of treatment with placebo: 3%
[3]; 4th day, 17h after 4th dose, ASA 200, AST Ac 300 mg/Kg
  % Inhibition of the edema in respect of treatment with placebo: 3%
[3]; 4th day, 23h after 4th dose, ASA 200, AST Ac 300 mg/Kg
  % Inhibition of the edema in respect of treatment with placebo: 0%
[4]; compared with acetylsalicylic acid
  Antiinflammatory, analgesic and antipyretic properties (in words): marked antiinflammatory, analgesic and antipyretic properties comparable to those of acetylsalicylic acid
[4]; in vivo
  Duration of pharmacodynamic activity in comparison with acetylsalicylic acid (in words): more prolonged pharmacodynamic activity
  Gastric injury (in words): did not exert any appreciable gastric injury
  Toxicity in comparison with acetylsalicylic acid (in words): less toxic
[5]; 1h
  % Inhibition of the hyperalgesia in respect of treatment with placebo: 47%
[5]; 3h
  % Inhibition of the hyperalgesia in respect of treatment with placebo: 47%
[5]; 5h
  % Inhibition of the hyperalgesia in respect of treatment with placebo: 19%
[6]
  Alteration of the gastric or intestinal mucosa: did not show any alteration of the gastric or intestinal mucosa
Acute toxicity, mouse; intravenous, sodium salt solution
  LD50: 520 mg/kg
Acute toxicity, mouse; ip, intraperitoneal, sodium salt solution
  LD50: 1300 mg/kg
Acute toxicity, mouse; oral, acid form in carboxymethylcellulose
  LD50: 5000 mg/kg
Acute toxicity, mouse; sc, subcutaneous, sodium salt solution
  LD50: 2000 mg/kg
[7]; 1h
  % Inhibition of the pyrexia in respect of treatment with placebo: 18%
[7]; 2h
  % Inhibition of the pyrexia in respect of treatment with placebo: 26%
[7]; 4h
  % Inhibition of the pyrexia in respect of treatment with placebo: 30%
[7]; 6h
  % Inhibition of the pyrexia in respect of treatment with placebo: 25%
[7]; 8h
  % Inhibition of the pyrexia in respect of treatment with placebo: 9%
Acute toxicity, rat
  LD50: 530 mg/kg

## O=C(OCCN(CCS(=O)(=O)O)C(=O)c1cccnc1)c1cccnc1 [Compound A, N-nicotinoyl-N-(2-nicotinoyloxy)ethyltaurine]
[8]; 0.1 mg/kg endoperitoneal
  Vasodilator effect: duration: 0 min
  Vasodilator effect: positive response: 0%
[8]; 1.0 mg/kg endoperitoneal
  Vasodilator effect: duration: 120 min
  Vasodilator effect: positive response: 80%
  Vasodilator effect: time of appearance: 90 s
[8]; 10.0 mg/kg endoperitoneal
  Vasodilator effect: duration: 120 min
  Vasodilator effect: positive response: 100%
  Vasodilator effect: time of appearance: 96 s
[8]; endoperitoneal
  Vasodilator activity (in words): better activity than the 3-pyridylcarbinol compound
[9]; Handler diet
  Bile BSF excretion, percentage change vs controls: +36.0%
  Serum beta-lipoproteins, percentage change vs controls: -28.9%
  Serum total cholesterol, percentage change vs controls: -26.9%
  Serum total lipids, percentage change vs controls: -19.6%
[9]; Morris diet
  Bile BSF excretion, percentage change vs controls: +23.5%
  Serum beta-lipoproteins, percentage change vs controls: -34.3%
  Serum total cholesterol, percentage change vs controls: -14.3%
  Serum total lipids, percentage change vs controls: -17.0%
[9]; oral, Morris and Handler diets
  Oral absorption (deduced from diet tests): absorbed orally
[10]
  Mortality: no mortality
[11]; 100 mg/kg i.v.
  Bile dry residue change: +40.0%
  Bile volume change: +52.0%
  Choleretic activity (in words): appearance of choleretic activity
[11]; [13]
  Bile dry residue after 2 h: 35.3 mg/h
  Bile volume after 2 h: 1.14 mL/h
[11]; before treatment (first hour)
  Bile dry residue after 1 h: 25.7 mg/h
  Bile volume after 1 h: 0.75 mL/h
[12]
  Reduction of BSF in the blood relative to controls: 16%

— patent US4259332A, “Novel taurine derivatives” (priority 1979, dated 1981)
